Key:
ALK5 [1] = system: ALK5; parameters: method as in PMID 16271073; conditions: cited from earlier work
ALK5 [2] = molecular target: T1, ALK5 (Homo sapiens, UniProt P36897); test: Radiometric 33PanQinase ALK5 kinase assay (ProQinase), casein substrate; format: biochemical; conditions: for Selectivity Index: IC50 of p38α/IC50 of ALK5; for ALK5 inhibitory activity in words: at up to 5.0 μM for 18a–d, 'at up to 2.26 μM' for pyrimidin-4-yl compounds; for remaining activity at 10 µM: compound at 10 μM, in duplicate, read-out: Residual Activity (%) ALK5
T1 sequence (P36897 205-495 limits assumed): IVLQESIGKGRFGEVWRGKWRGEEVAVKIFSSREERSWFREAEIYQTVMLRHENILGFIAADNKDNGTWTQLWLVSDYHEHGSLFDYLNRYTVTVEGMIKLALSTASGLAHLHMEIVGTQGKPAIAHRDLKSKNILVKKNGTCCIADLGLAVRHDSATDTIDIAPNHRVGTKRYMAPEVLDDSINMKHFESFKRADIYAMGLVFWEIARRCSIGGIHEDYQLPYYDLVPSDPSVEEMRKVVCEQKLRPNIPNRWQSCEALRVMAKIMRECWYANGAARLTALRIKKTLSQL
Procedure: To investigate whether compounds 14a–d, 15a–d, 16a–d, 17a–d, 18a–d, and 19a–d would inhibit ALK5, a kinase assay for preliminary screening was performed using the purified human ALK5 kinase domain produced in Sf9 insect cells and compounds at 10 μM.
(§1) All kinase experiments were completed by the ProQinase (Freiburg, Germany). All protein kinases were expressed in Sf9 insect cells or in E. coli as recombinant GST-fusion proteins or His-tagged proteins, either as full-length or enzymatically active fragments. All kinases were obtained from human cDNAs and purified by either GSH-affinity chromatography or immobilized metal. The purity of the protein kinases was examined by SDS-PAGE/Coomassie staining. The identity was checked by mass spectroscopy.
(§2) A radiometric protein kinase assay (^33PanQinase® activity assay) was used for measuring the kinase activity of the two protein kinases. All kinase assays were performed in 96-well FlashPlates^TM from PerkinElmer (Boston, MA, USA) in 50 μL reaction volumes. The reaction cocktail was pipetted in four steps in the following order: 20 μL of assay buffer (standard buffer), 5 μL of ATP solution (in H2O), 5 μL of test compound (in 10% DMSO), 20 μL enzyme/substrate mix.
(§3) The assay for all protein kinases contained 70 mM HEPES-NaOH pH 7.5, 3 mM MgCl2, 3 mM MnCl2, 3 μM Na-orthovanadate, 1.2 mM DTT, 50 μg/mL PEG20000, ATP, [γ-^33P]-ATP, protein kinase, and substrate.
(§4) The reaction cocktail was incubated at 30 °C for 60 min. The reaction was halted with 50 μL of 2% (v/v) H3PO4, plates were aspirated and washed two times with 200 μL 0.9% (w/v) NaCl. Incorporation of ^33Pi was established with a microplate scintillation counter (PerkinElmer, Boston, MA, USA). All assays were performed with a BeckmanCoulter/SAGIAN™ Core System.

p38α MAP kinase = p38α MAP kinase (Homo sapiens, UniProt Q16539); test: Radiometric 33PanQinase p38α MAP kinase assay (ProQinase), ATF2 substrate; format: biochemical; conditions: for remaining activity at 10 µM: compound at 10 μM, in duplicate, read-out: Residual Activity (%) p38α
Sequence of p38α MAP kinase (Q16539 whole entry, the tested form may be a part): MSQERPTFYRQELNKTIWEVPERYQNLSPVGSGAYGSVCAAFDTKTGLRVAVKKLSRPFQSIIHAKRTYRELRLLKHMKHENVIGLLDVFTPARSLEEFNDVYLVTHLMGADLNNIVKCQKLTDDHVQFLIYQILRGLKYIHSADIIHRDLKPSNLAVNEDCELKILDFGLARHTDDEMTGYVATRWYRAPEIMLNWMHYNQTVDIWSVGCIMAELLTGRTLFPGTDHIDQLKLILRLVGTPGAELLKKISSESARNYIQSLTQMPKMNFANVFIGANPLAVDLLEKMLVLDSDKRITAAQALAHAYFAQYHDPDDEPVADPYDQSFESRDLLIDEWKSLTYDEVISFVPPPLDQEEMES
Text: We selected p38α MAP kinase to survey the selectivity profile of this series of compounds because its kinase domain is among the most homologous to that of ALK5 [27].
as §1, §2, §3, §4

| melting point [°C] | IC50 (ALK5 [2]) [µM] | Selectivity Index (ALK5 [2]) | ALK5 inhibitory activity in words (ALK5 [2]) | IC50 (p38α MAP kinase) [µM] | remaining activity at 10 µM (ALK5 [2]) [%] | remaining activity at 10 µM (p38α MAP kinase) [%] | Structure (SMILES) | IC50 (ALK5 [1]) [µM] |
| --- | --- | --- | --- | --- | --- | --- | --- | --- |
|  |  |  |  |  |  |  | Cc1cccc(-c2nn(C(=S)Nc3ccccc3)cc2-c2ccnc3ccccc23)n1 [Compound 6, A-83-01] | 0.012 |
| 178.3 to 180.5 | 4.12 | >2 | no significant ALK5 inhibition activity | > 10 |  |  | N#Cc1cccc(NC(=O)Cn2cc(-c3ccc4nccnc4c3)c(-c3ccncn3)n2)c1 [Compound 25d, N-(3-Cyanophenyl)-2-(3-(pyrimidin-4-yl)-4-(quinoxalin-6-yl)-1H-pyrazol-1-yl)acetamide] |  |
| 190.5 to 193 |  |  |  |  | 84 | 118 | CN(C)c1cccc(-c2nn(CC(=O)Nc3ccccc3F)cc2-c2ccc3nccnc3c2)n1 [Compound 14b, 2-(3-(6-(Dimethylamino)pyridin-2-yl)-4-(quinoxalin-6-yl)-1H-pyrazol-1-yl)-N-(2-fluorophenyl)acetamide] |  |
| 88.3 to 91.2 | > 10 |  |  | > 10 | 70 | 125 | CN(C)c1cccc(-c2nn(CC(=S)Nc3ccccc3F)cc2-c2ccc3nccnc3c2)n1 [Compound 18b, 2-(3-(6-(Dimethylamino)pyridin-2-yl)-4-(quinoxalin-6-yl)-1H-pyrazol-1-yl)-N-(2-fluorophenyl)ethanethioamide] |  |
| 146.5 to 147.6 |  |  |  |  | 88 | 109 | CN(C)c1cccc(-c2c(-c3ccc4nccnc4c3)cnn2CC(=O)Nc2cccc(F)c2)n1 [Compound 15c, 2-(5-(6-(Dimethylamino)pyridin-2-yl)-4-(quinoxalin-6-yl)-1H-pyrazol-1-yl)-N-(3-fluorophenyl)acetamide] |  |
| 212.5 to 214 |  |  |  |  | 85 | 110 | CN(C)c1cccc(-c2nn(CC(=O)Nc3ccccc3)cc2-c2ccc3nccnc3c2)n1 [Compound 14a, 2-(3-(6-(Dimethylamino)pyridin-2-yl)-4-(quinoxalin-6-yl)-1H-pyrazol-1-yl)-N-phenylacetamide] |  |
| 192.3 to 194.5 | 3.66 | >3 | no significant ALK5 inhibition activity | > 10 |  |  | O=C(Cn1cc(-c2ccc3nccnc3c2)c(-c2ccncn2)n1)Nc1ccccc1F [Compound 25b, N-(2-Fluorophenyl)-2-(3-(pyrimidin-4-yl)-4-(quinoxalin-6-yl)-1H-pyrazol-1-yl)acetamide] |  |
| 145.5 to 148 |  |  |  |  | 94 | 109 | CN(C)c1cccc(-c2c(-c3ccc4nccnc4c3)cnn2CC(=O)Nc2cccc(C#N)c2)n1 [Compound 15d, N-(3-Cyanophenyl)-2-(5-(6-(dimethylamino)pyridin-2-yl)-4-(quinoxalin-6-yl)-1H-pyrazol-1-yl)acetamide] |  |
| 212.1 to 213.5 |  |  |  |  | 3 | 101 | Cc1csc(-c2nn(CC(=O)Nc3cccc(F)c3)cc2-c2ccc3nccnc3c2)n1 [Compound 16c, N-(3-Fluorophenyl)-2-(3-(4-methylthiazol-2-yl)-4-(quinoxalin-6-yl)-1H-pyrazol-1-yl)acetamide] |  |
